Results as given in ChEMBL document CHEMBL4507259 (2021).

Assays:
[1] = tested on: Epidermal growth factor receptor (Homo sapiens), P00533 [UNDEFINED MUTATION]; settings: Compound concentration 1000.0 nM
[2] = target: Serine/threonine-protein kinase PLK3 (Homo sapiens) (UniProt Q9H4B4); settings: Compound concentration 1000.0 nM
[3] = tested on: Tyrosine-protein kinase ABL1 (Homo sapiens), P00519 [E255K]; settings: Compound concentration 1000.0 nM
[4] = target: T1, Muscarinic acetylcholine receptor M5 (Homo sapiens) (UniProt P08912); settings: Compound concentration 10.0 uM
T1 sequence (whole entry): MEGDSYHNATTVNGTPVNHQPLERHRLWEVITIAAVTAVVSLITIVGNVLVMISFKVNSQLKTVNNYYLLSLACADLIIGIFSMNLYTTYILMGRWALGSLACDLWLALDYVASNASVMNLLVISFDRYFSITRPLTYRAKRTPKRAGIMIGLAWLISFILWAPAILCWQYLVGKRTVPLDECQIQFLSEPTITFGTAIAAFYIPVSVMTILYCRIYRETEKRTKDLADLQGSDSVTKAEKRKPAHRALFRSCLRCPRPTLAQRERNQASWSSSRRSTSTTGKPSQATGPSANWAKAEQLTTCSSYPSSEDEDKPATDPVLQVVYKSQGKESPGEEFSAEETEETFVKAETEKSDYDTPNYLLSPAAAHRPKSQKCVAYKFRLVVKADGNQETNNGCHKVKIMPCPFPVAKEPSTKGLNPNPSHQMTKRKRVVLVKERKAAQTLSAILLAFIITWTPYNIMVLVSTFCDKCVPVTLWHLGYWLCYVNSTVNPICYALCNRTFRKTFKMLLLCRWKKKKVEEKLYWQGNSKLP

[5] = target: TRAF2 and NCK-interacting protein kinase (Homo sapiens) (UniProt Q9UKE5); settings: Compound concentration 1000.0 nM
[6] = target: Ephrin type-A receptor 4 (Homo sapiens) (UniProt P54764); settings: Compound concentration 1000.0 nM
[7] = target: Serine/threonine-protein kinase pim-2 (Homo sapiens) (UniProt Q9P1W9); settings: Compound concentration 1000.0 nM
[8] = target: Serine/threonine-protein kinase D3 (Homo sapiens) (UniProt O94806); settings: Compound concentration 1000.0 nM
[9] = target: Calcium/calmodulin-dependent protein kinase type 1 (Homo sapiens) (UniProt Q14012); settings: Compound concentration 1000.0 nM
[10] = target: 5'-AMP-activated protein kinase catalytic subunit alpha-2 (Homo sapiens) (UniProt P54646); settings: Compound concentration 1000.0 nM
[11] = target: NT-3 growth factor receptor (Homo sapiens) (UniProt Q16288); settings: Compound concentration 1000.0 nM
[12] = target: Serine/threonine-protein kinase PAK 4 (Homo sapiens) (UniProt O96013); settings: Compound concentration 1000.0 nM
[13] = target: Myotonin-protein kinase (Homo sapiens) (UniProt Q09013); settings: Compound concentration 1000.0 nM
[14] = target: Serine/threonine-protein kinase DCLK1 (Homo sapiens) (UniProt O15075); settings: Compound concentration 1000.0 nM
Serine/threonine-protein kinase DCLK1 (Homo sapiens), sequence (O15075 whole entry): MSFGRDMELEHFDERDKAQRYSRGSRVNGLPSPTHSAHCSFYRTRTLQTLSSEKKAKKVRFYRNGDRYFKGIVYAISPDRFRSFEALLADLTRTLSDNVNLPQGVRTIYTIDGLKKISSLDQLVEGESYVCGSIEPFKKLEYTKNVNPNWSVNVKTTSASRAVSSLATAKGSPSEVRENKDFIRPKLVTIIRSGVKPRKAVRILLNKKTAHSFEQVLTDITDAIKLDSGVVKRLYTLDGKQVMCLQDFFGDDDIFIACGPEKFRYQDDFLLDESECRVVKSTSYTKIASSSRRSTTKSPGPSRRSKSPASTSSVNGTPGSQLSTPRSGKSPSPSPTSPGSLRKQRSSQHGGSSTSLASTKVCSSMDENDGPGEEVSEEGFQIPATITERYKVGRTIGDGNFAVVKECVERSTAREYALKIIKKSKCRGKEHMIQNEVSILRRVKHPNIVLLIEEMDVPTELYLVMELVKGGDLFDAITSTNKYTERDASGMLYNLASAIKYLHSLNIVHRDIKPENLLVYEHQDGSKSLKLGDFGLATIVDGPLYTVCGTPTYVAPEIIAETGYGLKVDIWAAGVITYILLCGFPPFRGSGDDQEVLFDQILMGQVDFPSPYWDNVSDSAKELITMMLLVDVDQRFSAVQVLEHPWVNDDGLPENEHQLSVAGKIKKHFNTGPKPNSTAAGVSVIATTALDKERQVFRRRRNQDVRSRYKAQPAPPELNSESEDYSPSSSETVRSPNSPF

[15] = target: Non-receptor tyrosine-protein kinase TYK2 (Homo sapiens) (UniProt P29597); settings: Compound concentration 1000.0 nM
[16] = target: Angiopoietin-1 receptor (Homo sapiens) (UniProt Q02763); settings: Compound concentration 1000.0 nM
Angiopoietin-1 receptor (Homo sapiens), sequence (Q02763 whole entry): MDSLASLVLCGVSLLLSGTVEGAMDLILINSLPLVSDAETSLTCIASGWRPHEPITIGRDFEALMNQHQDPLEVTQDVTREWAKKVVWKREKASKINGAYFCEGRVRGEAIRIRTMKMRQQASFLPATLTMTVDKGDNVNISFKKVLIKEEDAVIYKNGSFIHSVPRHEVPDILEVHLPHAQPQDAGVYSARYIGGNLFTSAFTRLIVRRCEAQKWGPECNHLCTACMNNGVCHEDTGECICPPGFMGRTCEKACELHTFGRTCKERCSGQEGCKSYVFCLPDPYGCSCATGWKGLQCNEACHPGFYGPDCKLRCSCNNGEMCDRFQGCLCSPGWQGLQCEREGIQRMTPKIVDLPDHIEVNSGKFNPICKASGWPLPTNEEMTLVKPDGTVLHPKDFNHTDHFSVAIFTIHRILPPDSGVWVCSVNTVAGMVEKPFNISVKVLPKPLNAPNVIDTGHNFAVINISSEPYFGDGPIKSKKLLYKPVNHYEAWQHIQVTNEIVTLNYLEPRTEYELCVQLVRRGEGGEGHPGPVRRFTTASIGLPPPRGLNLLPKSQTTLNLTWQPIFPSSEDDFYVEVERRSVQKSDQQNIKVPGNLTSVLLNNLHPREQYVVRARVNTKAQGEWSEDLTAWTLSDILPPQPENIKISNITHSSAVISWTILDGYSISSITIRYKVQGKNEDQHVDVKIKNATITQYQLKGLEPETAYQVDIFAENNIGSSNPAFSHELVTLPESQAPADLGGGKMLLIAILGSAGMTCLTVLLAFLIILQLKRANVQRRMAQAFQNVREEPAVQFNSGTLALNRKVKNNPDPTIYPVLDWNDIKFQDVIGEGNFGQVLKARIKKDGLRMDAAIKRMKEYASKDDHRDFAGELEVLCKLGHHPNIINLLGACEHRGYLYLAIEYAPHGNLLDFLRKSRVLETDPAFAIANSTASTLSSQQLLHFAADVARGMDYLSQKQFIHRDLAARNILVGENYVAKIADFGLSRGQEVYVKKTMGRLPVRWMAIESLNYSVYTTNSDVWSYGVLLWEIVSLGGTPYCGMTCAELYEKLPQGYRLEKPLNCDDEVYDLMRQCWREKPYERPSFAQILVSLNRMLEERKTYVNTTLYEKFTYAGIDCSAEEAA

[17] = target: Casein kinase II subunit alpha' (Homo sapiens) (UniProt P19784); settings: Compound concentration 1000.0 nM
[18] = target: Prostaglandin E2 receptor EP2 subtype (Homo sapiens) (UniProt P43116); assay: EP2 (h) CEREP ligand profiling; settings: filed as agonist, Compound concentration 10.0 uM
[19] = target: Tyrosine-protein kinase Yes (Homo sapiens) (UniProt P07947); settings: Compound concentration 1000.0 nM
[20] = target: Dual specificity tyrosine-phosphorylation-regulated kinase 1B (Homo sapiens) (UniProt Q9Y463); settings: Compound concentration 1000.0 nM
Dual specificity tyrosine-phosphorylation-regulated kinase 1B (Homo sapiens), sequence (Q9Y463 whole entry, looked up): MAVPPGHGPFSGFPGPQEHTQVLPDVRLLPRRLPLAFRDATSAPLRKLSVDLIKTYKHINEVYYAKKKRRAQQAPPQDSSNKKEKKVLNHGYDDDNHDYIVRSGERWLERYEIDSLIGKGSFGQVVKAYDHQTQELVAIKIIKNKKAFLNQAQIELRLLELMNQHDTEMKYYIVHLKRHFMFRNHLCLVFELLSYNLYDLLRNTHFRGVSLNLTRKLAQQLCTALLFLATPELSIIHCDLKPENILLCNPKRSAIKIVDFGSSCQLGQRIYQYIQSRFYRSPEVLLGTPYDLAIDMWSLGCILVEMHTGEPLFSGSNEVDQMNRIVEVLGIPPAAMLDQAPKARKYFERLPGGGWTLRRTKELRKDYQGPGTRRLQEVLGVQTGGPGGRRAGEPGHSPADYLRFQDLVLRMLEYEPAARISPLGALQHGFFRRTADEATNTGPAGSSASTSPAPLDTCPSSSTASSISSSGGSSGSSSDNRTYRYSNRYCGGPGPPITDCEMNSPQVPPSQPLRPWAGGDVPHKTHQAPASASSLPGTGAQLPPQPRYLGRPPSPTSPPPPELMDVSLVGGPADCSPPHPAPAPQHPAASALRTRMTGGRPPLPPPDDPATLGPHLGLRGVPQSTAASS

[21] = target: 1-phosphatidylinositol 3-phosphate 5-kinase (Homo sapiens) (UniProt Q9Y2I7); settings: Compound concentration 1000.0 nM
[22] = target: MAP kinase-activated protein kinase 2 (Homo sapiens) (UniProt P49137); settings: Compound concentration 1000.0 nM
[23] = target: Cyclin-G-associated kinase (Homo sapiens) (UniProt O14976); settings: Compound concentration 1000.0 nM
Cyclin-G-associated kinase (Homo sapiens), sequence (O14976 whole entry): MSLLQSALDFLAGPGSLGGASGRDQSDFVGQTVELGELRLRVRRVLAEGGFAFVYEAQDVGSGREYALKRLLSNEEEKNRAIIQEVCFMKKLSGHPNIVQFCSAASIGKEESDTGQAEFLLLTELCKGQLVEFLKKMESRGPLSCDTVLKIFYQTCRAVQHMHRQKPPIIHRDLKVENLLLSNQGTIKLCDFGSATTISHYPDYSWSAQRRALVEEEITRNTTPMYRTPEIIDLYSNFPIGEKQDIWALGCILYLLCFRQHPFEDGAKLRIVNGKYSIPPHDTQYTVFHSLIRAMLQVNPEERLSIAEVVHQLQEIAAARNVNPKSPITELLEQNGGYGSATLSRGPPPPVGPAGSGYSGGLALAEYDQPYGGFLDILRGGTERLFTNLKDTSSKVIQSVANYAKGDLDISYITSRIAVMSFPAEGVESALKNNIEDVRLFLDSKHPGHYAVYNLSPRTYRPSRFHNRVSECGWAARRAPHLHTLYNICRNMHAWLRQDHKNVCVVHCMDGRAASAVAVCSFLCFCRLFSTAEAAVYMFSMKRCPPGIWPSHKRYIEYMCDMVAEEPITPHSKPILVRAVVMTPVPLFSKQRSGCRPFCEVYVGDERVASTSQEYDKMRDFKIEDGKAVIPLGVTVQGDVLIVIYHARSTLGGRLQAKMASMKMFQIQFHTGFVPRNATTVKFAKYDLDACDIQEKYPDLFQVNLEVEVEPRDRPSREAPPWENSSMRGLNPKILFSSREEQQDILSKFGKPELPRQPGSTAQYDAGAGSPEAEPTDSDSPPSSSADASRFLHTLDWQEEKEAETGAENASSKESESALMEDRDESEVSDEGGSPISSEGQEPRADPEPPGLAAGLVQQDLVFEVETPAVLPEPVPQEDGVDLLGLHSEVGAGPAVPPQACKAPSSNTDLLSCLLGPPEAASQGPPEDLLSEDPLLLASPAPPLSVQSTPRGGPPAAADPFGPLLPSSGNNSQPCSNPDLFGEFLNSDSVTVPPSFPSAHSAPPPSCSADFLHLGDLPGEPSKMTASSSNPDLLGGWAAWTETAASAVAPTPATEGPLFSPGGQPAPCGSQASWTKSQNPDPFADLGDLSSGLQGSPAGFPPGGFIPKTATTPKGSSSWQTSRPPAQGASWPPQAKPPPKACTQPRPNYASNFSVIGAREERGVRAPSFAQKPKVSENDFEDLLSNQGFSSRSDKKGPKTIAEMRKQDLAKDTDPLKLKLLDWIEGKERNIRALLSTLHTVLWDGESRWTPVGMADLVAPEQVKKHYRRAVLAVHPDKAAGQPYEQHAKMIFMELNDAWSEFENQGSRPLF

[24] = target: Ribosomal protein S6 kinase alpha-2 (Homo sapiens) (UniProt Q15349); settings: Compound concentration 1000.0 nM
[25] = target: Calcium/calmodulin-dependent protein kinase type 1B (Homo sapiens) (UniProt Q6P2M8); settings: Compound concentration 1000.0 nM
[26] = target: Tyrosine-protein kinase Fyn (Homo sapiens) (UniProt P06241); settings: Compound concentration 1000.0 nM
[27] = target: Serine/threonine-protein kinase 26 (Homo sapiens) (UniProt Q9P289); settings: Compound concentration 1000.0 nM
Serine/threonine-protein kinase 26 (Homo sapiens), sequence (Q9P289 2-416 limits assumed): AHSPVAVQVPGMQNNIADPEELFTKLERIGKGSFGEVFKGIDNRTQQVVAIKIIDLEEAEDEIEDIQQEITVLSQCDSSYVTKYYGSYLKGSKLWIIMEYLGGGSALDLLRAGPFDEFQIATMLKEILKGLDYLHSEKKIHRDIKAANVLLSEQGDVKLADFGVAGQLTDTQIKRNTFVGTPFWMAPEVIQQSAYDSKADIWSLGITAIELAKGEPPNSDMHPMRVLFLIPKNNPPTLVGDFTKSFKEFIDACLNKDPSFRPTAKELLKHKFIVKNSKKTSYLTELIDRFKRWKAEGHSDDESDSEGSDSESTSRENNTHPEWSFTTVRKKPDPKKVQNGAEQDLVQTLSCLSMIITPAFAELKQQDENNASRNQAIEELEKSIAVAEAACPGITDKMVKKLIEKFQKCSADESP

[28] = tested on: Mast/stem cell growth factor receptor Kit (Homo sapiens), P10721 [D816H]; settings: Compound concentration 1000.0 nM
[29] = tested on: Receptor-type tyrosine-protein kinase FLT3 (Homo sapiens), P36888 [K663Q]; settings: Compound concentration 1000.0 nM
[30] = target: Cyclin-dependent kinase-like 5 (Homo sapiens) (UniProt O76039); settings: Compound concentration 1000.0 nM
[31] = target: Misshapen-like kinase 1 (Homo sapiens) (UniProt Q8N4C8); settings: Compound concentration 1000.0 nM
[32] = tested on: ALK tyrosine kinase receptor (Homo sapiens), Q9UM73 [C1156Y]; settings: Compound concentration 1000.0 nM
Rattus norvegicus = species on record: Rattus norvegicus; settings: Compound concentration 10.0 uM
[33] = target: Endothelin-1 receptor (Homo sapiens) (UniProt P25101); assay: ETA (h) CEREP ligand profiling; settings: filed as agonist, Compound concentration 10.0 uM
[34] = target: Phosphatidylinositol 4,5-bisphosphate 3-kinase catalytic subunit alpha isoform (Homo sapiens) (UniProt P42336); settings: Compound concentration 1000.0 nM
[35] = target: Sodium-dependent dopamine transporter (Homo sapiens, UniProt Q01959); settings: Compound concentration 10.0 uM
Sodium-dependent dopamine transporter, sequence (Q01959 whole entry): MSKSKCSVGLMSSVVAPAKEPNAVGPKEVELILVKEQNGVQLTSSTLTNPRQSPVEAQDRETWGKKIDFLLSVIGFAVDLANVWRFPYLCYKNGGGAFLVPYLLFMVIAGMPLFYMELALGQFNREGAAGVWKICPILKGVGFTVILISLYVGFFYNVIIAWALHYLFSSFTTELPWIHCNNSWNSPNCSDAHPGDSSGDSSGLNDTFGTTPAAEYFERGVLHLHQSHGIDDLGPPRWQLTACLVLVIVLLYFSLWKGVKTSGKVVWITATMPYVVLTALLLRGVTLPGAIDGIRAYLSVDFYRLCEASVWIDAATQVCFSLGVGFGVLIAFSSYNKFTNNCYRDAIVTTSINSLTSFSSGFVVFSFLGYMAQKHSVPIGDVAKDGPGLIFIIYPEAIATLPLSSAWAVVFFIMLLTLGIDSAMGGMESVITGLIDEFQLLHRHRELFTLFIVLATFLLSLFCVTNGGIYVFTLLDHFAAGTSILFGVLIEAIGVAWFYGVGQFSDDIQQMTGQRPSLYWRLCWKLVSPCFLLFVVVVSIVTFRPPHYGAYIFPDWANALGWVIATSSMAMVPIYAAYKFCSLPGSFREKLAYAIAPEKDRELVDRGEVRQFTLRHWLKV

[36] = target: Serine/threonine-protein kinase MAK (Homo sapiens) (UniProt P20794); settings: Compound concentration 1000.0 nM
[37] = tested on: Epidermal growth factor receptor (Homo sapiens), P00533 [G719C]; settings: Compound concentration 1000.0 nM

## CNC(=O)Nc1ccc2c(c1)CC[C@@]21OC(=O)N(CC(=O)N(Cc2ccc(F)cc2)[C@@H](C)C(F)(F)F)C1=O [A-485]
[1]
  residual activity: 64%
[2]
  residual activity: 86%
[3]
  residual activity: 75%
[4]
  inhibition: 2.39%
[5]
  residual activity: 93%
[6]
  residual activity: 89%
[7]
  residual activity: 98%
[8]
  residual activity: 100%
[9]
  residual activity: 95%
[10]
  residual activity: 99%
[11]
  residual activity: 84%
[12]
  residual activity: 89%
[13]
  residual activity: 100%
[14]
  residual activity: 96%
[15]
  residual activity: 86%
[16]
  residual activity: 87%
[17]
  residual activity: 100%
[18]
  inhibition: 27%
[19]
  residual activity: 76%
[20]
  residual activity: 81%
[21]
  residual activity: 58%
[22]
  residual activity: 87%
[23]
  residual activity: 100%
[24]
  residual activity: 76%
[25]
  residual activity: 100%
[26]
  residual activity: 100%
[27]
  residual activity: 90%
[28]
  residual activity: 67%
[29]
  residual activity: 100%
[30]
  residual activity: 69%
[31]
  residual activity: 95%
[32]
  residual activity: 88%
Rattus norvegicus
  inhibition: 60%
[33]
  inhibition: 3%
[34]
  residual activity: 83%
[35]
  inhibition: 63.9%
[36]
  residual activity: 84%
[37]
  residual activity: 97%

## CNC(=O)Nc1ccc2c(c1)[C@@]1(CC2)OC(=O)N(CC(=O)N(Cc2ccc(F)cc2)[C@@H](C)C(F)(F)F)C1=O [A-486]
[1]
  residual activity: 85%
[2]
  residual activity: 84%
[3]
  residual activity: 100%
[4]
  inhibition: -2.77%
[5]
  residual activity: 87%
[6]
  residual activity: 86%
[7]
  residual activity: 89%
[8]
  residual activity: 100%
[9]
  residual activity: 100%
[10]
  residual activity: 57%
[11]
  residual activity: 82%
[12]
  residual activity: 95%
[13]
  residual activity: 92%
[14]
  residual activity: 76%
[15]
  residual activity: 68%
[16]
  residual activity: 100%
[17]
  residual activity: 90%
[18]
  inhibition: 10%
[19]
  residual activity: 85%
[20]
  residual activity: 100%
[21]
  residual activity: 72%
[22]
  residual activity: 100%
[23]
  residual activity: 100%
[24]
  residual activity: 87%
[25]
  residual activity: 90%
[26]
  residual activity: 79%
[27]
  residual activity: 100%
[28]
  residual activity: 70%
[29]
  residual activity: 84%
[30]
  residual activity: 82%
[31]
  residual activity: 78%
[32]
  residual activity: 100%
Rattus norvegicus
  inhibition: 50.6%
[33]
  inhibition: -1%
[34]
  residual activity: 28%
[35]
  inhibition: -6.45%
[36]
  residual activity: 100%
[37]
  residual activity: 100%
